Assay results published in patent US7420056B2, “Substituted bicyclic imidazo-3-ylamine compounds” (Gruenenthal GmbH, priority 2004, dated 2008).
Counter-ions that a name gives are not always drawn.

Target: mGluR5 receptor (Sus scrofa, UniProt I3LUI7)
Experiment: Affinity for the mGluR5 receptor: inhibition of 3[H]-MPEP binding in pig brain homogenate
Conditions: 10 μM compound, 5 nM 3[H]-MPEP, read-out: mGluR5 receptor inhibition of ^3[H]-MPEP binding [10 μM] in % at a concentration of the example compounds of 10 μM
Experimental: 1. Method for Determining Affinity for the mGluR5 Receptor
Pig brain homogenate is produced by homogenisation (Polytron Pt 3000, Kinematica AG, 10,000 revolutions per minute for 90 seconds) of pig brain hemispheres without medulla, cerebellum and pons in a buffer of pH 8.0 (30 mM Hepes, Sigma, order number H3375+1 tablet Complete Roche Diagnostics, order number 1836145 made up to 100 ml) in a ratio of 1:20 (brain weight/volume) and differential centrifugation at 900×g and 40,000×g. 450 μg of protein from brain homogenate is incubated in each case in 250 μl incubation batches in 96-well microtitre plates with 5 nM 3[H]-MPEP (Tocris, order number R1212) (MPEP=2-methyl-6-[…]) and the compounds to be investigated (10 μM in the test) in the buffer (as above) at room temperature for 60 minutes.
The batches are then filtered with the assistance of a Brandel Cell Harvester (Brandel, Grade Robotic 9600) on Unifilter plates with glass filter mats (Perkin Elmer, order number 6005177) and then washed 3 times with buffer (as above) using 250 μl per sample. The filter plates are then dried for 60 minutes at 55° C. Then 30 μl of Ultima Gold™ scintillating material (Packard BioScience, order number 6013159) is added per well and after 3 hours the samples are measured using the β counter (Microbeta, Perkin Elmer). Nonspecific binding is determined by the addition of 10 μM MPEP (Tocris, order number 1212).

Chain of mGluR5 receptor (I3LUI7 19-1212): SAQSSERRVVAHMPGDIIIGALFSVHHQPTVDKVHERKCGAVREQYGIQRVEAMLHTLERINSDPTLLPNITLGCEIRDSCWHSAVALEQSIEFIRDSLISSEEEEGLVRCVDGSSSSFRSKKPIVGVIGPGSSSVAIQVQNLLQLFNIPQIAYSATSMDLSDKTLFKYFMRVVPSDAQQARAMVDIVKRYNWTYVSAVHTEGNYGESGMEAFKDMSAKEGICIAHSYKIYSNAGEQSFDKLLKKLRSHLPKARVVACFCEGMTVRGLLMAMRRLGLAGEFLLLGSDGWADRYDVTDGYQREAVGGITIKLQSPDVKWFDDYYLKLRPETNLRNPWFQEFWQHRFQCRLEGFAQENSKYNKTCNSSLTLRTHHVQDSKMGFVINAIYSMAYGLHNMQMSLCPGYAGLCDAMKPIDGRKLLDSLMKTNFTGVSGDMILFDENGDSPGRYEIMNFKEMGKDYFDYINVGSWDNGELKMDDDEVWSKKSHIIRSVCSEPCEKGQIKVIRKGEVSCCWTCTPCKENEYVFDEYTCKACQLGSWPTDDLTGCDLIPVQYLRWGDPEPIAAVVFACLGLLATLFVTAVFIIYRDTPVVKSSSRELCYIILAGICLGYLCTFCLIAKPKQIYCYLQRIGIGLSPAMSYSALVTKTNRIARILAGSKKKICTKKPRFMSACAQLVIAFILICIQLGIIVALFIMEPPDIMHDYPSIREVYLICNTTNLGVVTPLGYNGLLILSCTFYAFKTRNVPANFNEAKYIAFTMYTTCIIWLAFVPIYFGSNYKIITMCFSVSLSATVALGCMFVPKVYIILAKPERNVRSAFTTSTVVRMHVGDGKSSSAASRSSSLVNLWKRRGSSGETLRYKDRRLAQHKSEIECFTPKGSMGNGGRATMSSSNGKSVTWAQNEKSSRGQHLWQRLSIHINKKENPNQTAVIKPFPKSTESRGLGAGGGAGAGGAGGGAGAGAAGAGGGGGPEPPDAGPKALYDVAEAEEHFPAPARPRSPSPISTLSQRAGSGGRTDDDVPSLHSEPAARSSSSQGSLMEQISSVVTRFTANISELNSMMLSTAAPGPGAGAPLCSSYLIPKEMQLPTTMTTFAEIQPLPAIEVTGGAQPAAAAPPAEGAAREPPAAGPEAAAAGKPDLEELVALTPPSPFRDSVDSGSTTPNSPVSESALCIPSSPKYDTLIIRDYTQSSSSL

Row | SMILES | inhibition at 10 µM [%]
1 | C(#Cc1ccc(-c2nc3cnccn3c2N(Cc2cccnc2)Cc2cccnc2)s1)c1ccccc1 [Example 79, [2-(5-phenylethynyl-thiophen-2-yl)-imidazo[1,2-a]pyrazin-3-yl]-bis-pyridin-3-ylmethyl-amine] | 35
2 | Nc1c(-c2ccc(C#Cc3ccccc3)s2)nc2cnccn12 [Example 83, 2-(5-phenylethynyl-thiophen-2-yl)-imidazo[1,2-a]pyrazin-3-ylamine] | 35
3 | C(#Cc1ccc(-c2nc3cnccn3c2NC2CCCCC2)s1)c1ccccc1 [Example 87, N-cyclohexyl-2-(5-(phenylethynyl)thiophen-2-yl)imidazo[1,2-a]pyrazin-3-amine] | 35
4 | Cc1cc(Br)c2nc(-c3ccc(C#Cc4ccccn4)s3)c(NC3CCCC3)n2c1 [Example 92, 8-bromo-N-cyclopentyl-6-methyl-2-(5-(pyridin-2-ylethynyl)thiophen-2-yl)imidazo[1,2-a]pyridin-3-amine] | 82
5 | Cc1cc(Br)c2nc(-c3cccc(C#Cc4ccccn4)c3)c(NC(C)(C)C)n2c1 [Example 96, 8-bromo-N-tert-butyl-6-methyl-2-(3-(pyridin-2-ylethynyl)phenyl)imidazo[1,2-a]pyridin-3-amine] | 79
6 | CC(C)(C)CC(C)(C)Nc1c(-c2cccc(C#Cc3ccccn3)c2)nc2c(Cl)cc(C(F)(F)F)cn12 [Example 103, 8-chloro-2-(3-(pyridin-2-ylethynyl)phenyl)-6-(trifluoromethyl)-N-(2,4,4-trimethylpentan-2-yl)imidazo[1,2-a]pyridin-3-amine] | 66

Same assay, conditions: 3[H]-MPEP binding

Row | SMILES | IC50 [µM]
7 | CCCNc1c(-c2ccc(C#Cc3ccccc3)s2)nc2cnccn12 [Example 69, propyl-[2-(5-phenylethynyl-thiophen-2-yl)-imidazo[1,2-a]pyrazin-3-yl]-amine] | 2.93
8 | CC(C)CNc1c(-c2ccc(C#Cc3ccccc3)s2)nc2cnccn12 [Example 71, (2-methylpropyl)-[2-(5-phenylethynyl-thiophen-2-yl)-imidazo[1,2-a]pyrazin-3-yl]-amine] | 1.27
9 | COC(=O)CN(CC(=O)OC)c1c(-c2ccc(C#Cc3ccccc3)s2)nc2cnccn12 [Example 73, {(methoxycarbonylmethyl)-[2-(5-phenylethynyl-thiophen-2-yl)-imidazo[1,2-a]pyrazin-3-yl]-amino}-acetic acid methyl ester] | 2.21
10 | COC(=O)CNc1c(-c2ccc(C#Cc3ccccc3)s2)nc2cnccn12 [Example 75, [2-(5-phenylethynyl-thiophen-2-yl)-imidazo[1,2-a]pyrazin-3-ylamino]-acetic acid methyl ester] | 1.29
11 | CC(C)(C)Nc1c(-c2ccc(C#Cc3ccncc3)s2)nc2cnccn12 [Example 76, tert-butyl-[2-(5-pyridin-4-ylethynyl-thiophen-2-yl)-imidazo[1,2-a]pyrazin-3-yl]-amine] | 0.0037
12 | Cc1cccc(C#Cc2ccc(-c3nc4cnccn4c3NC(C)(C)CC(C)(C)C)s2)n1 [Example 86, 2-(5-((6-methylpyridin-2-yl)ethynyl)thiophen-2-yl)-N-(2,4,4-trimethylpentan-2-yl)imidazo[1,2-a]pyrazin-3-amine] | 0.32
13 | CC(C)(C)Nc1c(-c2ccc(C#Cc3ccccc3)o2)nc2cnccn12 [Example 95, N-tert-butyl-2-(5-(phenylethynyl)furan-2-yl)imidazo[1,2-a]pyrazin-3-amine] | 1.74
14 | CC(C)(C)Nc1c(-c2ccc(C#Cc3ccc(F)cc3)s2)nc2cnccn12 [Example 100, N-tert-butyl-2-(5-((4-fluorophenyl)ethynyl)thiophen-2-yl)imidazo[1,2-a]pyrazin-3-amine hydrochloride] | 0.34
15 | Cc1cccc2nc(-c3ccc(C#Cc4ccccc4)s3)c(NC(C)(C)C)n12 [Example 102, N-tert-butyl-5-methyl-2-(5-(phenylethynyl)thiophen-2-yl)imidazo[1,2-a]pyridin-3-amine] | 8.85
16 | CC(C)(C)Nc1c(-c2ccc(C#Cc3cccc(F)c3)s2)nc2cnccn12 [Example 104, N-tert-butyl-2-(5-((3-fluorophenyl)ethynyl)thiophen-2-yl)imidazo[1,2-a]pyrazin-3-amine hydrochloride] | 0.092
17 | CC(C)(C)Nc1c(-c2ccc(C#Cc3ccccc3F)s2)nc2cnccn12 [Example 105, N-tert-butyl-2-(5-((2-fluorophenyl)ethynyl)thiophen-2-yl)imidazo[1,2-a]pyrazin-3-amine hydrochloride] | 0.15
18 | CC(C)(C)Nc1c(-c2ccc(C#Cc3cnccn3)s2)nc2cnccn12 [Example 107, N-tert-butyl-2-(5-(pyrazin-2-ylethynyl)thiophen-2-yl)imidazo[1,2-a]pyrazin-3-amine] | 0.052

More lines, now with the values ahead:

Row | IC50 [µM] | SMILES
19 | 2.32 | CCNc1c(-c2ccc(C#Cc3ccccc3)s2)nc2cnccn12 [Example 68, ethyl-[2-(5-phenylethynyl-thiophen-2-yl)-imidazo[1,2-a]pyrazin-3-yl]-amine]
20 | 1.06 | CCCCNc1c(-c2ccc(C#Cc3ccccc3)s2)nc2cnccn12 [Example 70, butyl-[2-(5-phenylethynyl-thiophen-2-yl)-imidazo[1,2-a]pyrazin-3-yl]-amine]
21 | 5.34 | CCCCCNc1c(-c2ccc(C#Cc3ccccc3)s2)nc2cnccn12 [Example 72, pentyl-[2-(5-phenylethynyl-thiophen-2-yl)-imidazo[1,2-a]pyrazin-3-yl]-amine]
22 | 1.1 | C(#Cc1ccc(-c2nc3cnccn3c2NCc2ccccc2)s1)c1ccccc1 [Example 74, benzyl-[2-(5-phenylethynyl-thiophen-2-yl)-imidazo[1,2-a]pyrazin-3-yl]-amine]
23 | 0.0057 | CC(C)(C)Nc1c(-c2ccc(C#Cc3ccccn3)s2)nc2cnccn12 [Example 77, tert-butyl-[2-(5-pyridin-2-ylethynyl-thiophen-2-yl)-imidazo[1,2-a]pyrazin-3-yl]-amine]
24 | 0.2 | CC(C)(C)Nc1c(-c2ccc(C#Cc3cccnc3)s2)nc2cnccn12 [Example 82, tert-butyl-[2-(5-pyridin-3-ylethynyl-thiophen-2-yl)-imidazo[1,2-a]pyrazin-3-yl]-amine]
25 | 1.32 | COC(=O)c1nccn2c(NC(C)(C)CC(C)(C)C)c(-c3ccc(C#Cc4ccccc4)s3)nc12 [Example 84, methyl-2-(5-(phenylethynyl)thiophen-2-yl)-3-(2,4,4-trimethylpentan-2-ylamino)imidazo[1,2-a]pyrazine-8-carboxylate]
26 | 2.01 | CC(C)(C)CC(C)(C)Nc1c(-c2ccc(C#Cc3ccccc3)s2)nc2ncccn12 [Example 85, 2-(5-(phenylethynyl)thiophen-2-yl)-N-(2,4,4-trimethylpentan-2-yl)imidazo[1,2-a]pyrimidin-3-amine]
27 | 1.4 | C(#Cc1ccc(-c2nc3cnccn3c2N2CCCCC2)s1)c1ccccc1 [Example 88, 2-(5-(phenylethynyl)thiophen-2-yl)-3-(piperidin-1-yl)imidazo[1,2-a]pyrazine]
28 | 0.045 | CN(c1c(-c2ccc(C#Cc3ccccc3)s2)nc2cnccn12)C(C)(C)C [Example 89, N-tert-butyl-N-methyl-2-(5-(phenylethynyl)thiophen-2-yl)imidazo[1,2-a]pyrazin-3-amine]
29 | 0.25 | CCN(CC)c1c(-c2ccc(C#Cc3ccccc3)s2)nc2cnccn12 [Example 93, N,N-diethyl-2-(5-(phenylethynyl)thiophen-2-yl)imidazo[1,2-a]pyrazin-3-amine]
30 | 0.59 | Cc1cccn2c(NC(C)(C)C)c(-c3ccc(C#Cc4ccccc4)s3)nc12 [Example 97, N-tert-butyl-8-methyl-2-(5-(phenylethynyl)thiophen-2-yl)imidazo[1,2-a]pyridin-3-amine]
31 | 0.25 | CN(c1c(-c2ccc(C#Cc3ccccc3)s2)nc2cnccn12)C(C)(C)CC(C)(C)C [Example 98, N-methyl-2-(5-(phenylethynyl)thiophen-2-yl)-N-(2,4,4-trimethylpentan-2-yl)imidazo[1,2-a]pyrazin-3-amine hydrochloride]
32 | 0.54 | C(#Cc1ccc(-c2nc3cnccn3c2N2CCCC2)s1)c1ccccc1 [Example 99, 2-(5-(phenylethynyl)thiophen-2-yl)-3-(pyrrolidin-1-yl)imidazo[1,2-a]pyrazine hydrochloride]
33 | 2.47 | Cc1ccn2c(NC(C)(C)C)c(-c3ccc(C#Cc4ccccc4)s3)nc2c1 [Example 101, N-tert-butyl-7-methyl-2-(5-(phenylethynyl)thiophen-2-yl)imidazo[1,2-a]pyridin-3-amine]
34 | 0.21 | COC(=O)c1nccn2c(NC(C)(C)C)c(-c3ccc(C#Cc4ccccc4)s3)nc12 [Example 106, methyl-3-(tert-butylamino)-2-(5-(phenylethynyl)thiophen-2-yl)imidazo[1,2-a]pyrazine-8-carboxylate]
35 | 1.24 | CC(C)(C)Nc1c(-c2ccc(C#Cc3ccc(N)cc3)s2)nc2cnccn12 [Example 108, 2-(5-((4-aminophenyl)ethynyl)thiophen-2-yl)-N-tert-butylimidazo[1,2-a]pyrazin-3-amine]
36 | 0.3 | CC(C)Nc1c(-c2ccc(C#Cc3ccccc3)s2)nc2cnccn12 [Example 109, N-isopropyl-2-(5-(phenylethynyl)thiophen-2-yl)imidazo[1,2-a]pyrazin-3-amine]
